# Test results taken from patent publication US12544370B2, “Methods for cancer therapy” (ASCENTAGE PHARMA (SUZHOU) CO., LTD., priority 2018, dated 2026).
# Tests used:
# Details in all cases: read-out: Antiproliferation Effect (IC50)
# [1] = target: Ba/F3 containing BCR-ABL mutation E255K (Homo sapiens, UniProt P00519, E255K, cells depend on it)
# From the text: (§1) Ba/F3 cells stably expressing BCR-ABL (F359V, H396R, E255K, Y253H, T315I, F317L) mutations were provided by the Institute of Life and Health, Guangzhou Academy of Sciences.
# (§2) 1. The mutated Ba/F3 cell line stably expressing BCR-ABL (E255V, T315M, Y253H/E255V, Y253H/T315I, Y253H/F359V, T315I/F317L, F317L/F359V) mutation was constructed by electro-transformation method, the Ba/F3 cell line stably expressing the BCR-ABL (E255V/T315I, T315I/F359V) mutation was constructed by lentivirus infection method.
# (§3) 2. Effect of drugs on the proliferation of BaF3 cells stably transfected with BCR-ABL single mutation or complex mutation by WST assay
# (§4) The dilution was used as a cell blank control (excluding the sample to be tested, which was added to the cells). In addition, a negative control (excluding the sample to be tested and cells) was prepared. In addition to the negative control wells, 100 μl of complete medium cell suspension was added to each well. The dilution was added to the negative control wells at 100 μl/well. 3 repeated wells were set in the experiment. […] 20 μl of CCK-8 detection solution (Shanghai Life iLab Biotech Co., LTD, Cat #D3100L4057) was added to each well, incubating at 37° C. for 2 hours in a CO2 incubator. The OD value was measured at A450 nm by a microplate reader.
# (§5) The percentage of cell viability was calculated using the following formula: (O.D. test well-O.D. negative control well)/(O.D. cell control well-O.D. negative control well)×100
# (§6) The IC50 was calculated using a non-linear regression data analysis method of Graphpad Prism 6.0 software ([…]).
# [2] = target: Ba/F3 containing BCR-ABL mutation T315I (Homo sapiens, UniProt P00519, T315I, cells depend on it)
# From the text: as §1, §2, §3, §4, §5, §6
# [3] = target: Ba/F3 containing BCR-ABL mutation H396R (Homo sapiens, UniProt P00519, H396R, cells depend on it)
# From the text: as §1, §2, §3, §4, §5, §6
# [4] = target: Ba/F3 containing BCR-ABL mutation Y253H/T315I (Homo sapiens, UniProt P00519, Y253H/T315I, cells depend on it)
# From the text: as §1, §2, §3, §4, §5, §6
# [5] = target: Ba/F3 containing BCR-ABL mutation T315I/F317L (Homo sapiens, UniProt P00519, T315I/F317L, cells depend on it)
# From the text: as §1, §2, §3, §4, §5, §6
# [6] = target: Ba/F3 containing BCR-ABL mutation F359V (Homo sapiens, UniProt P00519, F359V, cells depend on it)
# From the text: as §1, §2, §3, §4, §5, §6
# [7] = target: Ba/F3 containing BCR-ABL mutation E255V/T315I (Homo sapiens, UniProt P00519, E255V/T315I, cells depend on it)
# From the text: as §1, §2, §3, §4, §5, §6
# [8] = target: Ba/F3 containing BCR-ABL mutation Y253H/F359V (Homo sapiens, UniProt P00519, Y253H/F359V, cells depend on it)
# From the text: as §1, §2, §3, §4, §5, §6
# [9] = target: Ba/F3 containing BCR-ABL mutation T315M (Homo sapiens, UniProt P00519, T315M, cells depend on it)
# From the text: as §1, §2, §3, §4, §5, §6
# [10] = target: Ba/F3 containing BCR-ABL mutation F317L (Homo sapiens, UniProt P00519, F317L, cells depend on it)
# From the text: as §1, §2, §3, §4, §5, §6
# [11] = target: Ba/F3 containing BCR-ABL mutation E255V (Homo sapiens, UniProt P00519, E255V, cells depend on it)
# From the text: as §1, §2, §3, §4, §5, §6
# [12] = target: Ba/F3 containing BCR-ABL mutation Y253H (Homo sapiens, UniProt P00519, Y253H, cells depend on it)
# From the text: as §1, §2, §3, §4, §5, §6
# [13] = target: Ba/F3 containing BCR-ABL mutation T315I/F359V (Homo sapiens, UniProt P00519, T315I/F359V, cells depend on it)
# From the text: as §1, §2, §3, §4, §5, §6
# [14] = target: Ba/F3 containing BCR-ABL mutation Y253H/E255V (Homo sapiens, UniProt P00519, Y253H/E255V, cells depend on it)
# From the text: as §1, §2, §3, §4, §5, §6
smiles,measurement,setting,value
"Cc1ccc(C(=O)Nc2ccc(CN3CCN(C)CC3)c(C(F)(F)F)c2)cc1C#Cc1cnc2[nH]ncc2c1 [compound of formula (I-A), 3-(2-(1H-pyrazolo[3,4-b]pyridin-5-yl)ethynyl)-4-methyl-N-(4-((4-methylpiperazin-1-yl)methyl)-3-(trifluoromethyl)phenyl)-benzamide]",GI50,[1],0.022 ± 0.013 µM
same,GI50,[2],0.024 ± 0.01 µM
same,GI50,[3],0.274 ± 0.082 µM
same,GI50,[4],0.111 ± 0.001 µM
same,GI50,[5],0.114 ± 0.009 µM
same,GI50,[6],0.281 ± 0.187 µM
same,GI50,[7],0.026 ± 0.011 µM
same,GI50,[8],0.1 ± 0.081 µM
same,GI50,[9],0.217 ± 0.131 µM
same,GI50,[10],0.008 ± 0.003 µM
same,GI50,[11],0.0135 ± 0.001 µM
same,GI50,[12],0.007 ± 0.001 µM
same,GI50,[13],0.007 ± 0.001 µM
same,GI50,[14],0.122 µM
